# Test results taken from patent US20120220580A1, “PREPARATION OF CAROTENOID DERIVATIVES AND THEIR APPLICATIONS” (BEIJING GINGKO GROUP BIOLOGICAL TECHNOLOGY CO., LTD., priority 2009, published 2012).
# Where a name gives a salt, the structure may show the parent alone.
# Columns and labels:
# nutritional obesity rats [1] = assay: Body weight of nutritional obesity rats on high-fat feed, intragastric drug for 30 d (Example 17); type: in vivo, rat; details: x ± s; for Body weight(g) (After-experiment) / Body weight(g) increased: Table 1, high-fat feed; for Body weight(g) (After-experiment): after 30 d intragastric administration; for Body weight(g) increased: increase over 30 d of administration; for Body weight(g) (After-experiment): test concentration or dose not given here; for Body weight(g) increased: test concentration or dose not given here
# Experimental: (§1) Fucoxanthin group and test animal groups were administrated with same doses of the drugs. The basal feed control group continued to be fed with basal feed, other groups with high-fat feed. The basal feed- and model control groups were intragastric administrated with distilled water, the other, drug-administrated groups with respective doses of drug, the administration were carried out uninterruptedly for 30 d. Each group of the animals were bred in different hutches, the room temperature was controlled within (22±2)° C., using natural illumination, the animals took food and drank freely. The body weights of the animals were measured one time each week, feed-intakes of the rats were also observed and recorded. After 30 days the rats were weighed. Statistical analysis: Variance analysis of the data collected in this experiment was implemented by SAS software package, Dunnett's t-test was used for inter-group comparative analysis, p<0.05 was used as the criterion of statistical significance.
# nutritional obesity rats [2] = assay: Weight of abdomen fat of nutritional obesity rats (Example 20); type: in vivo, rat; details: after 30 d administration, x ± s; for Body weight(g) (After-experiment): Table 4
# Experimental: as §1, with “significance. Experimental procedures were the same as in Example 17. […] Statistical analysis was the same as in Example 16.” for “significance.”
# nutritional obesity rats [3] = assay: Weight of fat pads around testicles of nutritional obesity rats (Example 18); type: in vivo, rat; details: after 30 d administration, x ± s; for Body weight(g) (After-experiment): Table 2
# Experimental: as §1, with “significance. Experimental procedures were the same as in Example 17. […] Statistical analysis was the same as in Example 16.” for “significance.”
# [4] = system: nutritional obesity model rats; assay: Weight of fat pads around kidneys of nutritional obesity model rats (Example 19); type: in vivo, rat; details: after 30 d administration, x ± s; for Body weight(g) (After-experiment): Table 3
# Experimental: as §1, with “significance. Experimental procedures were the same as in Example 17. […] Statistical analysis was the same as in Example 16.” for “significance.”
# [5] = compared with fucoxanthin; cited from earlier work
# lab mice = details: fucoxanthin as an additive in condensed food, experimental animals; cited from earlier work; note: test concentration or dose not given here
Compound,Body weight(g) (After-experiment) (nutritional obesity rats [1]),Body weight(g) increased (nutritional obesity rats [1]),Body weight(g) (After-experiment) (nutritional obesity rats [2]),Weight abdomen fat/bw × 100 (nutritional obesity rats [2]),Weight. abdomenfat (g) (nutritional obesity rats [2]),Body weight(g) (After-experiment) (nutritional obesity rats [3]),Weight fat pads around testicles(g) (nutritional obesity rats [3]),Weight fat pads around testicles/bw × 100 (nutritional obesity rats [3]),Body weight(g) (After-experiment) [4],Weight fat pads around kidneys(g) [4],Weight fat pads around kidneys/bw × 100 [4],other results
"CC(=O)OC1CC(C)(C)C(=C=C/C(C)=C/C=C/C(C)=C/C=C/C=C(C)/C=C/C=C(\C)C(=O)CC23OC2(C)CC(OC(=O)[C@@H](O)[C@H](O)C(=O)O)CC3(C)C)[C@](C)(O)C1 (stereo partly drawn) [compound 11, fucoxanthin tartrate]",515.00 ± 18.90ΔΔ g,29.25 ± 1.23ΔΔ g,515.00 ± 18.90,1.40 ± 0.13ΔΔ,7.21 ± 0.23ΔΔ g,,,,,,,
"C\C(C=C=C1C(C)(C)CC(O)C[C@@]1(C)O)=C/C=C/C(C)=C/C=C/C=C(C)/C=C/C=C(\C)C(=O)CC12OC1(C)CC(O)CC2(C)C (stereo partly drawn) [fucoxanthol, reference compound]",527.00 ± 18.89ΔΔ g,39.39 ± 18.11ΔΔ g,527.00 ± 18.89,1.60 ± 0.11ΔΔ,7.91 ± 0.11ΔΔ g,527.00 ± 18.89,7.00 ± 0.67ΔΔ g,1.25 ± 0.13ΔΔ,527.00 ± 18.89,7.0 ± 0.58ΔΔ g,1.20 ± 0.10ΔΔ,weight-reducing activity [5]: much stronger than fucoxanthin
"CC(=O)OC1CC(C)(C)C(=C=C/C(C)=C/C=C/C(C)=C/C=C/C=C(C)/C=C/C=C(\C)C(=O)CC23OC2(C)CC(OC(=O)CCC(=O)O)CC3(C)C)[C@@](C)(O)C1 (stereo partly drawn) [compound 2, fucoxanthin succinate]",,,516.03 ± 12.15,1.31 ± 0.12ΔΔ,6.76 ± 0.22ΔΔ g,512.1 ± 21.00,6.00 ± 0.11ΔΔ g,1.18 ± 0.13ΔΔ,,,,
"CC(=O)OC1CC(C)(C)C(=C=C/C(C)=C/C=C/C(C)=C/C=C/C=C(C)/C=C/C=C(\C)C(=O)CC23OC2(C)CC(OC(=O)CCC(=O)O)CC3(C)C)[C@@](C)(O)C1 (stereo partly drawn) [compound 3, fucoxanthin succinate sodium salt]",,,,,,,,,,,,Body weight(g) (After-experiment) (nutritional obesity rats [3]; succinate sodium salt): 513.1 ± 19.13 g; Weight fat pads around testicles(g) (nutritional obesity rats [3]; succinate sodium salt): 7.00 ± 0.13ΔΔ g; Weight fat pads around testicles/bw × 100 (nutritional obesity rats [3]; succinate sodium salt): 1.20 ± 0.10ΔΔ
"CC(=O)OC1CC(C)(C)C(=C=C/C(C)=C/C=C/C(C)=C/C=C/C=C(C)/C=C/C=C(\C)C(=O)CC23OC2(C)CC(OC(=O)CCC(=O)Oc2ccc(/C=C/c4cc(O)cc(O)c4)cc2)CC3(C)C)[C@@](C)(O)C1 (stereo partly drawn) [compound 14, fucoxanthin resveratrol succinate]",514.00 ± 22.22ΔΔ g,28.52 ± 1.21ΔΔ g,,,,514.00 ± 22.22,5.00 ± 0.12ΔΔ g,0.90 ± 0.12ΔΔ,,,,
"CC(=O)OC1CC(C)(C)C(=C=C/C(C)=C/C=C/C(C)=C/C=C/C=C(C)/C=C/C=C(\C)C(=O)CC23OC2(C)CC(OC(=O)CC(O)(CC(=O)OC[C@H](O)[C@H]2OC(=O)C(O)=C2O)C(=O)O)CC3(C)C)[C@](C)(O)C1 (stereo partly drawn) [compound 7, fucoxanthincitrate5-vitamin C ester]",506.00 ± 19.07ΔΔ g,18.21 ± 1.12ΔΔ g,,,,,,,,,,
"C\C(C=C=C1C(C)(C)CC(OC(=O)N2CCOCC2)C[C@@]1(C)O)=C/C=C/C(C)=C/C=C/C=C(C)/C=C/C=C(\C)C(=O)CC12OC1(C)CC(OC(=O)N1CCOCC1)CC2(C)C (stereo partly drawn) [compound 12, fucoxanthol bi-morpholino carbamate]",500.01 ± 20.10ΔΔ g,12.12 ± 1.25ΔΔ g,,,,,,,,,,
"CCCCC/C=C\C/C=C\CCCCCCCC(=O)OC1CC(C)(C)C2(CC(=O)/C(C)=C/C=C/C(C)=C/C=C/C=C(C)/C=C/C=C(\C)C=C=C3C(C)(C)CC(OC(C)=O)C[C@@]3(C)O)OC2(C)C1 (stereo partly drawn) [compound 15, fucoxanthin linoleate]",,,,,,520.01 ± 16.88,6.34 ± 0.55ΔΔ g,1.22 ± 0.11ΔΔ,,,,
"CC(=O)OC1CC(C)(C)C(=C=C/C(C)=C/C=C/C(C)=C/C=C/C=C(C)/C=C/C=C(\C)C(=O)CC23OC2(C)CC(OC(=O)CNC(=O)C(CS)NC(=O)CCC(N)C(=O)O)CC3(C)C)[C@](C)(O)C1 (stereo partly drawn) [compound 10, fucoxanthin glutathione ester]",,,517.00 ± 11.23,1.50 ± 0.14ΔΔ,7.75 ± 0.20ΔΔ g,,,,522.08 ± 18.11,4.00 ± 0.40ΔΔ g,0.75 ± 0.11ΔΔ,
"CC(=O)OC1CC(C)(C)C(=C=C/C(C)=C/C=C/C(C)=C/C=C/C=C(C)/C=C/C=C(\C)C(=O)CC23OC2(C)CC(OC(=O)/C=C(/CC(=O)O)C(=O)O)CC3(C)C)[C@](C)(O)C1 (stereo partly drawn) [compound 8, fucoxanthin aconitate]",,,,,,,,,518.18 ± 15.21,4.40 ± 0.34ΔΔ g,0.85 ± 0.12ΔΔ,
"CC(=O)OC1CC(C)(C)C(=C=C/C=C/C=C/C(C)=C/C=C/C=C(C)/C=C/C=C(\C)C(=O)CC23OC2(C)CC(OC(=O)CCC(=O)OC[C@H](O)[C@H]2OC(=O)C(O)=C2O)CC3(C)C)[C@@](C)(O)C1 (stereo partly drawn) [compound 4, fucoxanthin succinate-4-vitamin C ester]",514.00 ± 30.22ΔΔ g,27.41 ± 1.21ΔΔ g,514.00 ± 30.22,0.80 ± 0.11ΔΔ,4.11 ± 0.14ΔΔ g,514.00 ± 30.22,4.00 ± 0.14ΔΔ g,0.70 ± 0.21ΔΔ,,,,
"CC(=O)OC1CC(C)(C)C(=C=C/C(C)=C/C=C/C(C)=C/C=C/C=C(C)/C=C/C=C(\C)C(=O)CC23OC2(C)CC(O)CC3(C)C)[C@](C)(O)C1 (stereo partly drawn) [fucoxanthin, 3′-(Acetyloxy)-6′,7′-didehydro-5,6-epoxy-5,5′,6,6′,7,8-hexahydro-3,5′-dihydroxy-8-oxo-β,β-carotene, reference compound]",531.00 ± 20.32Δ g,43.68 ± 19.13Δ g,531.00 ± 20.32,1.81 ± 0.13Δ,9.61 ± 0.12ΔΔ g,531.00 ± 20.32,7.32 ± 0.83Δ g,1.38 ± 0.11Δ,531.00 ± 20.32,7.42 ± 0.60Δ g,1.42 ± 0.12Δ,"addiction or other side effects (lab mice): would not induce the addiction of the experimental animals, or had any other side effects"
fucoxanthin succinate 4-vitamin Cester sodium salt [compound 5],,,504.01 ± 18.23,0.71 ± 0.10ΔΔ,3.58 ± 0.21ΔΔ g,,,,513.15 ± 11.00,7.00 ± 0.32ΔΔ g,1.12 ± 0.10ΔΔ,
"CC(=O)OC1CC(C)(C)C(=C=C/C(C)=C/C=C/C(C)=C/C=C/C=C(C)/C=C/C=C(\C)C(=O)CC23OC2(C)CC(OC(=O)CCCN(C)C)CC3(C)C)[C@](C)(O)C1 (stereo partly drawn) [compound 9, fucoxanthin di-methylaminobutyrate]",,,,,,,,,514.13 ± 13.00,5.00 ± 0.23ΔΔ g,0.98 ± 0.11ΔΔ,
"CC(=O)OC1CC(C)(C)C(=C=C/C(C)=C/C=C/C(C)=C/C=C/C=C(C)/C=C/C=C(\C)C(=O)CC23OC2(C)CC(OC(=O)CC(O)(CC(=O)O)C(=O)O)CC3(C)C)[C@](C)(O)C1 (stereo partly drawn) [compound 1, fucoxanthin citrate]",515.00 ± 29.21ΔΔ g,28.50 ± 1.15ΔΔ g,,,,,,,,,,
fucoxanthin citrate sodium salt [compound 6],507.00 ± 20.11ΔΔ g,20.32 ± 1.21ΔΔ g,,,,,,,,,,"Body weight(g) (before-experiment) (nutritional obesity rats [1]; SD male rats, after 1 month high-fat feed, before drug administration (baseline), 10 rats per group): 485.89 ± 18.99 g"
